≈ marks a conversion by molar mass, not a printed value. Counter-ions that a name gives are not always drawn. Like-named read-outs stand apart in the source and are kept apart here. One block for each molecule: values may come before it.
Assays:
Assay type in all cases: cell-based
E. coli ATCC 10536 = assay: MBC by Miles-Misra drop-plate method, E. coli; settings: Escherichia coli
Method: (§1) Antibacterial susceptibility testing was performed in triplicate (biological) by measuring minimum inhibitory concentrations (MICs) by broth microdilution in 96-well flat bottom microtiter plates (ThermoFisher Scientific, New Zealand). S. uberis ATCC 19436, S. aureus ATCC 6538, or E. coli ATCC 10596 cells grown overnight were diluted to an OD600 of approximately 0.025, so that the final concentration of cells in the MIC assay was approximately 5×10^5 cfu/mL in media as follows: S. uberis; Todd Hewitt Broth (THB), S. aureus; Tryptic Soy Broth (TSB) and Cation Adjusted Muller Hinton Broth (CAMHB), and E. coli; Lysogeny Borth (LB) and CAMHB, before being dispensed into microtiter wells. As required additional sterile Zinc Sulphate (Heptahydrate) was supplemented into the media, so the final concentration was 50 μM. Test compounds were added to starting wells and two-fold serial dilutions were undertaken to generate a range of inhibitor concentrations at a final volume of 200 μl. Media and test compound-free (untreated) controls were included in each microtiter plate in triplicate. After 24 h incubation at 37° C. and 200 rpm, the OD600 of wells were read using a Varioskan Flash plate reader (ThermoFisher Scientific, New Zealand). The MIC was reported as the lowest concentration of the test compound for which no growth occurred, as determined by OD600 readings. The minimum bactericidal concentration (MBC) was determined using the Miles-Misra drop-plate method to measure the viability of cells in response to test compound challenge.

S. uberis ATCC 19436 [1] = assay: MIC by broth microdilution, S. uberis; settings: Streptococcus uberis
Procedure, shortened: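 This broth microdilution assay used S. uberis ATCC 19436 in Todd Hewitt Broth, with zinc sulphate heptahydrate added where required to a final 50 μM. Inhibitor concentration ranges came from two-fold serial dilutions in 96-well flat bottom plates at 200 μl. Approximately 5×10^5 cfu/mL cells were incubated for 24 h at 37° C. and 200 rpm. Wells were then read at OD600 on a Varioskan Flash reader.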

E. coli ATCC 10596 = assay: MIC by broth microdilution, E. coli; settings: Escherichia coli
Procedure, shortened: (§2)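 Two-fold serial dilutions were tested in broth at ~5×10^5 cfu/mL: S. aureus in TSB or CAMHB, E. coli in LB or CAMHB, with 50 μM zinc sulphate added as required. After 24 h at 37° C, 200 rpm, MIC was the lowest concentration showing no growth by OD600.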

S. aureus ATCC 6538 [2] = assay: MIC by broth microdilution, S. aureus; settings: Staphylococcus aureus
Procedure, shortened: as §2

S. aureus ATCC 6538 [3] = assay: MBC by Miles-Misra drop-plate method, S. aureus; settings: Staphylococcus aureus
Method: as §1

S. uberis ATCC 19436 [4] = assay: MBC by Miles-Misra drop-plate method, S. uberis; settings: Streptococcus uberis
Method: as §1

[5] = ATCC10536, read-out: E. coli ATCC 10536 MBC, No Zinc
[6] = ATCC10536, read-out: E. coli ATCC 10536 MBC, Zinc (50 μM)
[7] = ATCC19436, No Zinc, read-out: S. uberis ATCC 19436 MIC
[8] = ATCC19436, Zinc (50 μM), read-out: S. uberis ATCC 19436 MIC
[9] = ATCC 10536 / ATCC 10596, No Zinc, read-out: E. coli ATCC 10536 MIC
[10] = ATCC 10536 / ATCC 10596, Zinc (50 μM), read-out: E. coli ATCC 10536 MIC
[11] = ATCC6538, No Zinc, read-out: S. aureus ATCC 6538 MIC
[12] = ATCC6538, Zinc (50 μM), read-out: S. aureus ATCC 6538 MIC
[13] = ATCC6538, read-out: S. aureus ATCC 6538 MBC, No Zinc
[14] = ATCC6538, read-out: S. aureus ATCC 6538 MBC, Zinc (50 μM)
[15] = ATCC19436, read-out: S. uberis ATCC 19436 MBC, No Zinc
[16] = ATCC19436, read-out: S. uberis ATCC 19436 MBC, Zinc (50 μM)
[17] = ATCC10536, No Zinc, read-out: E. coli ATCC 10536 MBC
[18] = ATCC10536, Zinc (50 μM), read-out: E. coli ATCC 10536 MBC
[19] = ATCC6538, No Zinc, read-out: S. aureus ATCC 6538 MBC
[20] = ATCC6538, Zinc (50 μM), read-out: S. aureus ATCC 6538 MBC
[21] = ATCC19436, No Zinc, read-out: S. uberis ATCC 19436 MBC
[22] = ATCC19436, Zinc (50 μM), read-out: S. uberis ATCC 19436 MBC
[23] = ATCC19436, read-out: S. uberis ATCC 19436 MIC, No Zinc
[24] = ATCC19436, read-out: S. uberis ATCC 19436 MIC, Zinc (50 μM)
[25] = ATCC 10536 / ATCC 10596, read-out: E. coli ATCC 10536 MIC, No Zinc
[26] = ATCC 10536 / ATCC 10596, read-out: E. coli ATCC 10536 MIC, Zinc (50 μM)
[27] = ATCC6538, read-out: S. aureus ATCC 6538 MIC, No Zinc
[28] = ATCC6538, read-out: S. aureus ATCC 6538 MIC, Zinc (50 μM)

Structure (SMILES): O=C(N/N=C/c1ccc2cccc(NS(=O)(=O)c3ccc(C(F)(F)F)cc3)c2n1)C1CCCNC1 (mixture of isomers) [ZDR124, (E/Z)—N-(2-((2-(Piperidine-3-carbonyl)hydrazineylidene)methyl)quinolin-8-yl)-4-(trifluoromethyl)benzenesulfonamide trifluoroacetate]
MBC (E. coli ATCC 10536; [5]): 128 µg/mL
MBC (E. coli ATCC 10536; [6]): 32 µg/mL
MIC (S. uberis ATCC 19436 [1]; [7]): 32 µg/mL
MIC (S. uberis ATCC 19436 [1]; [8]): 16 µg/mL
MIC (E. coli ATCC 10596; [9]): 128 µg/mL
MIC (E. coli ATCC 10596; [10]): 32 µg/mL
MIC (S. aureus ATCC 6538 [2]; [11]): 16 µg/mL
MIC (S. aureus ATCC 6538 [2]; [12]): 16 µg/mL
MBC (S. aureus ATCC 6538 [3]; [13]): > 256 µg/mL
MBC (S. aureus ATCC 6538 [3]; [14]): > 256 µg/mL
MBC (S. uberis ATCC 19436 [4]; [15]): 16 µg/mL
MBC (S. uberis ATCC 19436 [4]; [16]): 16 µg/mL

MIC (S. uberis ATCC 19436 [1]; [7]): 32 µg/mL (≈ 64.1 µM)
MIC (S. uberis ATCC 19436 [1]; [8]): 2 µg/mL (≈ 4 µM)
MIC (E. coli ATCC 10596; [9]): > 256 µg/mL
MIC (E. coli ATCC 10596; [10]): > 256 µg/mL
MIC (S. aureus ATCC 6538 [2]; [11]): 16 µg/mL (≈ 32 µM)
MIC (S. aureus ATCC 6538 [2]; [12]): 16 µg/mL (≈ 32 µM)
Structure (SMILES): O=C(N/N=C/c1ccc2cccc(NS(=O)(=O)c3ccc(C(F)(F)F)cc3)c2n1)c1ccncc1 [ZDR122, (E)-N-(2-((2-Isonicotinoylhydrazneylidene)methyl)quinolin-8-yl)-4-(trifluoromethyl)benzenesulfonamide]
MBC (E. coli ATCC 10536; [17]): > 256 µg/mL
MBC (E. coli ATCC 10536; [18]): > 256 µg/mL
MBC (S. aureus ATCC 6538 [3]; [19]): 32 µg/mL (≈ 64.1 µM)
MBC (S. aureus ATCC 6538 [3]; [20]): 128 µg/mL (≈ 256 µM)
MBC (S. uberis ATCC 19436 [4]; [21]): 128 µg/mL (≈ 256 µM)
MBC (S. uberis ATCC 19436 [4]; [22]): 32 µg/mL (≈ 64.1 µM)

Structure (SMILES): O=S(=O)(Nc1cccc2ccc(CNCCCN3CCCCC3)nc12)c1ccc(C(F)(F)F)cc1 [ZDR115, N-(2-(((3-(Piperidin-1-yl)propyl)amino)methyl)quinolin-8-yl)-4-(trifluoromethyl)benzenesulfonamide di-trifluoroacetate]
MBC (E. coli ATCC 10536; [5]): 16 µg/mL (≈ 31.6 µM)
MBC (E. coli ATCC 10536; [6]): 16 µg/mL (≈ 31.6 µM)
MIC (S. uberis ATCC 19436 [1]; [23]): 4 µg/mL (≈ 7.9 µM)
MIC (S. uberis ATCC 19436 [1]; [24]): 2 µg/mL (≈ 3.95 µM)
MIC (E. coli ATCC 10596; [25]): 16 µg/mL (≈ 31.6 µM)
MIC (E. coli ATCC 10596; [26]): 16 µg/mL (≈ 31.6 µM)
MIC (S. aureus ATCC 6538 [2]; [27]): 16 µg/mL (≈ 31.6 µM)
MIC (S. aureus ATCC 6538 [2]; [28]): 16 µg/mL (≈ 31.6 µM)
MBC (S. aureus ATCC 6538 [3]; [13]): 16 µg/mL (≈ 31.6 µM)
MBC (S. aureus ATCC 6538 [3]; [14]): 16 µg/mL (≈ 31.6 µM)
MBC (S. uberis ATCC 19436 [4]; [15]): 8 µg/mL (≈ 15.8 µM)
MBC (S. uberis ATCC 19436 [4]; [16]): 4 µg/mL (≈ 7.9 µM)

MIC (S. uberis ATCC 19436 [1]; [7]): 8 µg/mL (≈ 15.4 µM)
MIC (S. uberis ATCC 19436 [1]; [8]): 1 µg/mL (≈ 1.93 µM)
MIC (E. coli ATCC 10596; [9]): 256 µg/mL (≈ 494 µM)
MIC (E. coli ATCC 10596; [10]): 256 µg/mL (≈ 494 µM)
MIC (S. aureus ATCC 6538 [2]; [11]): 8 µg/mL (≈ 15.4 µM)
MIC (S. aureus ATCC 6538 [2]; [12]): 4 µg/mL (≈ 7.71 µM)
Structure (SMILES): O=[N+]([O-])c1ccc(O)c(NCc2ccc3cccc(NS(=O)(=O)c4ccc(C(F)(F)F)cc4)c3n2)c1 [ZDR170, N-(2-(((2-Hydroxy-5-nitrophenyl)amino)methyl)quinolin-8-yl)-4-(trifluoromethyl)benzenesulfonamide]
MBC (E. coli ATCC 10536; [17]): > 256 µg/mL
MBC (E. coli ATCC 10536; [18]): > 256 µg/mL
MBC (S. aureus ATCC 6538 [3]; [19]): 128 µg/mL (≈ 247 µM)
MBC (S. aureus ATCC 6538 [3]; [20]): 128 µg/mL (≈ 247 µM)
MBC (S. uberis ATCC 19436 [4]; [21]): 16 µg/mL (≈ 30.9 µM)
MBC (S. uberis ATCC 19436 [4]; [22]): 2 µg/mL (≈ 3.86 µM)

Structure (SMILES): N=C(N)NCCNCc1ccc2cccc(NS(=O)(=O)c3ccc(C(F)(F)F)cc3)c2n1 [ZDR143, N-(2-(((2-Guanidinoethyl)amino)methyl)quinolin-8-yl)-4-(trifluoromethyl)benzenesulfonamide di-trifluoroacetate]
MBC (E. coli ATCC 10536; [5]): 32 µg/mL (≈ 68.6 µM)
MBC (E. coli ATCC 10536; [6]): 32 µg/mL (≈ 68.6 µM)
MIC (S. uberis ATCC 19436 [1]; [23]): 8 µg/mL (≈ 17.1 µM)
MIC (S. uberis ATCC 19436 [1]; [24]): 4 µg/mL (≈ 8.57 µM)
MIC (E. coli ATCC 10596; [25]): 16 µg/mL (≈ 34.3 µM)
MIC (E. coli ATCC 10596; [26]): 16 µg/mL (≈ 34.3 µM)
MIC (S. aureus ATCC 6538 [2]; [27]): 8 µg/mL (≈ 17.1 µM)
MIC (S. aureus ATCC 6538 [2]; [28]): 8 µg/mL (≈ 17.1 µM)
MBC (S. aureus ATCC 6538 [3]; [13]): 16 µg/mL (≈ 34.3 µM)
MBC (S. aureus ATCC 6538 [3]; [14]): 16 µg/mL (≈ 34.3 µM)
MBC (S. uberis ATCC 19436 [4]; [15]): 8 µg/mL (≈ 17.1 µM)
MBC (S. uberis ATCC 19436 [4]; [16]): 8 µg/mL (≈ 17.1 µM)

Structure (SMILES): CN1CCN(CCNCc2ccc3cccc(NS(=O)(=O)c4ccc(C(F)(F)F)cc4)c3n2)CC1 [ZDR114, N-(2-(((2-(4-Methylpiperazin-1-yl)ethyl)amino)methyl)quinolin-8-yl)-4-(trifluoromethyl)benzenesulfonamide di-trifluoroacetate]
MBC (E. coli ATCC 10536; [5]): > 256 µg/mL
MBC (E. coli ATCC 10536; [6]): 64 µg/mL (≈ 126 µM)
MIC (S. uberis ATCC 19436 [1]; [23]): 32 µg/mL (≈ 63 µM)
MIC (S. uberis ATCC 19436 [1]; [24]): 4 µg/mL (≈ 7.88 µM)
MIC (E. coli ATCC 10596; [25]): 64 µg/mL (≈ 126 µM)
MIC (E. coli ATCC 10596; [26]): 64 µg/mL (≈ 126 µM)
MIC (S. aureus ATCC 6538 [2]; [27]): 64 µg/mL (≈ 126 µM)
MIC (S. aureus ATCC 6538 [2]; [28]): 64 µg/mL (≈ 126 µM)
MBC (S. aureus ATCC 6538 [3]; [13]): 128 µg/mL (≈ 252 µM)
MBC (S. aureus ATCC 6538 [3]; [14]): 64 µg/mL (≈ 126 µM)
MBC (S. uberis ATCC 19436 [4]; [15]): 32 µg/mL (≈ 63 µM)
MBC (S. uberis ATCC 19436 [4]; [16]): 4 µg/mL (≈ 7.88 µM)

Reference: US11691949B2, “Quinoline sulfonamide compounds and their use as antibacterial agents” (OTAGO INNOVATION LIMITED, priority 2017, dated 2023)
